Publication PMC6270423, “Phytochemical, Antimicrobial and Antiprotozoal Evaluation of Garcinia Mangostana Pericarp and α-Mangostin, Its Major Xanthone Derivative” (Molecules, 2013)
pIC50: −log10 of the molar value. Read-outs that look alike come from different tables or passages of the source.

How the values were obtained:
[1] = test system: L. infantum MHOM/MA (BE)/67 amastigotes; assay: Antileishmanial activity, intracellular amastigotes in primary peritoneal mouse macrophages; type: cell-based, Leishmania infantum; settings: 5 days
Protocol: The integrated panel of microbial screens and standard screening methodologies were adopted as previously described. All assays were performed in triplicate at the Laboratory of Microbiology, Parasitology and Hygiene at the University of Antwerp (Antwerp, Belgium). […] The selectivity of activity was assessed by simultaneous cytotoxicity evaluation on the MRC-5 fibroblast cell line. […] L. infantum MHOM/MA (BE)/67 amastigotes were collected from the spleen of an infected donor hamster and used to infect primary peritoneal mouse macrophages. To determine in vitro antileishmanial activity, 3 × 10^4 macrophages were seeded in each well of a 96-well plate. After 2 days outgrowth, 5 × 10^5 amastigotes/well, were added and incubated for 2 h at 37 °C. Pre-diluted plant extracts were subsequently added and the plates were further incubated for 5 days at 37 °C and 5% CO2. Parasite burdens (mean number of amastigotes/macrophage) were microscopically assessed on 500 cells after Giemsa staining of the […] expressed as a percentage of the blank controls without plant extract.

[2] = test system: Mycobacterium intracellulare; assay: Antimicrobial activity; type: cell-based, M. intracellulare
Protocol: (§1) Samples were tested for antimicrobial activity according to the Clinical Laboratory Standard Institution using American type of Culture Collection (ATCC) standard.

[3] = Cytotoxicity assay, resazurin; type: cell-based; settings: human, MRC-5 SV2 fibroblast cells
Protocol: The integrated panel of microbial screens and standard screening methodologies were adopted as previously described. All assays were performed in triplicate at the Laboratory of Microbiology, Parasitology and Hygiene at the University of Antwerp (Antwerp, Belgium). […] The selectivity of activity was assessed by simultaneous cytotoxicity evaluation on the MRC-5 fibroblast cell line. […] MRC-5 SV2 cells were cultivated in MEM, supplemented with L-glutamine (20 mM), 16.5 mM sodium hydrogen carbonate and 5% FCS. […] Cell viability was assessed fluorimetrically after 4 h of addition of resazurin. Fluorescence was measured (excitation 550 nm, emission 590 nm) and the results were expressed as % reduction in cell viability compared to control.

[4] = test system: Chloroquine-resistant P. falciparum K 1-strain; assay: Antiplasmodial activity, Malstat (pLDH) assay; type: cell-based; settings: Plasmodium falciparum; K1 strain, 72 h
Protocol: (§2) The integrated panel of microbial screens and standard screening methodologies were adopted as previously described. All assays were performed in triplicate at the Laboratory of Microbiology, Parasitology and Hygiene at the University of Antwerp (Antwerp, Belgium). Extracts were tested at five concentrations (64, 16, 4, 1 and 0.25 μg/mL) to establish a full dose-titration and determination of the IC50 (inhibitory concentration 50%). […] The selectivity of activity was assessed by simultaneous cytotoxicity evaluation on the MRC-5 fibroblast cell line.
Chloroquine-resistant P. falciparum K 1-strain was cultured in human erythrocytes O^+ at 37 °C under a low oxygen atmosphere (3% O2, 4% CO2, and 93% N2) in RPMI-1640, supplemented with 10% human serum. Infected human red blood cells (200 μL, 1% parasitaemia, 2% haematocrit) were added to each well and incubated for 72 h. After incubation, test plates were frozen at −20 °C. Parasite multiplication was measured using the Malstat assay, a colorimetric method based on the reduction of 3-acetyl pyridine adenine dinucleotide (APAD) by parasite-specific lactate-dehydrogenase (pLDH).

T. cruzi Tulahuen CL2 = assay: Antitrypanosomal activity, T. cruzi on MRC-5 cells, LacZ reporter; type: cell-based, Trypanosoma cruzi; settings: 7 days
Protocol: as §2
(§3) Trypanosoma brucei Squib-427 strain (suramin-sensitive) was cultured at 37 °C and 5% CO2 in Hirumi-9 medium, supplemented with 10% fetal calf serum (FCS). About 1.5 × 10^4 trypomastigotes/well were added to each well and parasite growth was assessed after 72 h at 37 °C by adding resazurin [29]. For Chagas disease, T. cruzi Tulahuen CL2 (benznidazole-sensitive, LacZ-reporter strain) was maintained on MRC-5 cells in minimal essential medium (MEM) supplemented with 20 mM L-glutamine, 16.5 mM sodium hydrogen carbonate and 5% FCS. […] After incubation at 37 °C for 7 days, parasite growth was assessed by adding the substrate chlorophenol red α-D-galactopyranoside. The color reaction was read at 540 nm after 4 h and absorbance values were expressed as a percentage of the blank controls.

Mycobacterium xenopi = assay: Antimicrobial activity; type: cell-based, M. xenopi
Protocol: as §1

Mycobacterium cheleneoi = assay: Antimicrobial activity; type: cell-based, M. cheleneoi
Protocol: as §1

[5] = test system: Trypanosoma brucei Squib-427 strain; assay: Antitrypanosomal activity, T. brucei trypomastigotes, resazurin; type: cell-based; settings: 72 h
Protocol: as §2, §3

C. albicans = assay: Antimicrobial activity; type: cell-based; settings: Candida albicans
Protocol: as §1

P. aeruginosa = assay: Antimicrobial activity; type: cell-based; settings: Pseudomonas aeruginosa
Protocol: as §1

Mycobacterium smegmatis = assay: Antimicrobial activity; type: cell-based; settings: Mycolicibacterium smegmatis
Protocol: as §1

S. aureus = assay: Antimicrobial activity; type: cell-based; settings: Staphylococcus aureus
Protocol: as §1

E. coli = assay: Antimicrobial activity; type: cell-based; settings: Escherichia coli
Protocol: as §1

B. subtilis = assay: Antimicrobial activity; type: cell-based, Bacillius subtilis; settings: Bacillus subtilis
Protocol: as §1

With `COc1cc2oc3cc(OC)c(OC)c(CC=C(C)C)c3c(=O)c2c(O)c1CC=C(C)C` as the molecule, how does the melting point read?
Its melting point is 152 to 154 °C.

Which results are given for `COc1c(O)cc2oc3cc(O)c(CC=C(C)C)c(O)c3c(=O)c2c1CC=C(C)C` [α-Mangostin]?
pIC50 [1]: 5.10; pIC50 ([1]; Leishmania infantum, Macrophage, 120 h): 5.05 to 5.10; MIC ([2]; read-out: MIC Mycobacterium intracellulare): 3.7 µM; MIC ([2]; read-out: MIC Mycobacterium species (M. intracellulare)): 1.5 µg/mL; IC50 at 72 h [3]: 7.5 µM; pIC50 [4]: 5.66; pIC50 (T. cruzi Tulahuen CL2): 5.05; pIC50 (T. cruzi Tulahuen CL2; Trypanosoma cruzi, TULAHUEN, MRC5, 168 h): 5.05 to 5.10; MIC (Mycobacterium xenopi; read-out: MIC Mycobacterium species (M. xenopi)): 1.5 µg/mL; MIC (Mycobacterium xenopi; read-out: MIC Mycobacterium xenopi): 3.7 µM; MIC (Mycobacterium cheleneoi; read-out: MIC Mycobacterium cheleneoi): 3.7 µM; MIC (Mycobacterium cheleneoi; read-out: MIC Mycobacterium species (M. cheleneoi)): 1.5 µg/mL; pIC50 [5]: 5.10; pIC50 ([5]; Trypanosoma brucei): 5.05 to 5.10; MIC (C. albicans): > 200 µM; IC50 (C. albicans; no activity at all): > 200 µg/mL; MIC (P. aeruginosa): > 200 µM; IC50 (P. aeruginosa; no activity at all): > 200 µg/mL; MIC (Mycobacterium smegmatis; read-out: MIC Mycobacterium smegmatis): 3.7 µM; MIC (Mycobacterium smegmatis; read-out: MIC Mycobacterium species (M. smegmatis)): 1.5 µg/mL; MIC (S. aureus): 7.8 µM; MIC (S. aureus; text): 3.2 µg/mL; MIC (E. coli): > 200 µM; IC50 (E. coli; no activity at all): > 200 µg/mL; MIC (B. subtilis): 3.9 µM; MIC (B. subtilis; text): 1.6 µg/mL
